Test results published in paper PMC9238401, “Peptide Conjugates Derived from flg15, Pep13, and PIP1 That Are Active against Plant-Pathogenic Bacteria and Trigger Plant Defense Responses” (Applied and Environmental Microbiology, 2022).
No end group written: not given here.

Assays:
horse erythrocytes = conditions: TRIS buffer pH 7.2, 1 h, 37°C, absorbance 540 nm, relative to melittin 100 μM, ± confidence interval (α = 0.05)
Experimental: The toxicity of peptide conjugates to eukaryotic cells was determined as the ability to lyse erythrocytes (Table SB).
The hemolytic activity of the compounds was evaluated by determining hemoglobin release from erythrocyte suspensions of horse blood (5% vol/vol) (Oxoid) as previously described ([45]). Blood was centrifuged at 6000g for 5 min, washed three times with TRIS buffer (10 mM TRIS, 150 mM NaCl, pH 7.2) and diluted 10 times. Compounds were solubilized in TRIS buffer at 750, 500, 300, and 100 μM and mixed with horse erythrocytes (1:1 vol/vol). The mixture was incubated with continuous shaking for 1 h at 37°C. Then, the tubes were centrifuged at 3500g for 10 min, 80-μL aliquots of the supernatant were transferred to 100-well microplates (Bioscreen) and diluted with 80 μL water, and the absorbance measured at 540 nm (Bioscreen). […] The percentage of hemolysis (H) was calculated using the equation H = 100 × ([Op − Ob]/[Om − Ob]), where Op is the density for a given compound concentration, Ob is that for the buffer, and Om is that for the melittin positive control.

tobacco leaves = assay: Effect of peptide infiltration on tobacco leaves (phytotoxicity); type: in vivo; conditions: 100 μL infiltrated into mesophyll, lesion diameter 48 h after infiltration, at least three leaves; ± confidence interval (α = 0.05)
Experimental: Peptide conjugates were also assayed for their toxicity in tobacco leaves (Fig. 3, Table SC). After 48 h of infiltration, melittin caused a necrotic area of 0.70 and 2.17 cm in diameter at 50 and 250 μM, respectively. The monomers were not phytotoxic at those concentrations; all of them led to lesions of ≤1.2 cm at 250 μM. All peptide conjugates were also less phytotoxic than melittin, causing necrotic lesions between 0.26 and 1.67 cm in diameter at 250 μM. In particular, 15 of the 30 conjugates led to a necrotic area of <1 cm at this concentration. In general, sequences incorporating BP13 were among the most phytotoxic.
Peptide conjugates were evaluated for their effect on infiltration on tobacco leaves as described previously ([41]). Peptide solutions of 50, 150, and 250 μM were infiltrated (100 μL) into the mesophylls of fully expanded tobacco leaves. Infiltrations were carried out in a single leaf, and for each peptide and dose, at least three leaves randomly distributed in different plants were inoculated. Control infiltrations with water (negative control) or melittin (positive control) at the same molar concentration were performed. The appearance of symptoms on the leaves was followed for 48 h after infiltration and measured as lesion diameter.

## CC[C@H](C)[C@H](NC(=O)[C@H](CCCCN)NC(=O)[C@H](CCCCN)NC(=O)[C@H](Cc1ccccc1)NC(=O)[C@H](CC(C)C)NC(=O)[C@H](CCCCN)NC(=O)[C@@H](N)CCCCN)C(=O)N[C@@H](CC(C)C)C(=O)N[C@@H](CCCCN)C(=O)N[C@@H](CCCCN)C(=O)N[C@@H](CC(C)C)C(N)=O [BP16, reference compound]
Horse erythrocytes
  Percent hemolysis at 50 μM: 2 ± 1%
  Percent hemolysis at 150 μM: 1 ± 0.6%
  Percent hemolysis at 250 μM: 1 ± 0.4%
  Percent hemolysis at 375 μM: 3 ± 3%
Tobacco leaves
  Size of the lesions in infiltrated tobacco leaves at 50 μM: 0.08 ± 0.11 cm
  Size of the lesions in infiltrated tobacco leaves at 150 μM: 0.16 ± 0.16 cm
  Size of the lesions in infiltrated tobacco leaves at 250 μM: 0.26 ± 0.08 cm

## CC[C@H](C)[C@H](NC(=O)[C@H](CCCCN)NC(=O)[C@H](CCCCN)NC(=O)[C@H](Cc1ccccc1)NC(=O)[C@H](CC(C)C)NC(=O)[C@H](CCCCN)NC(=O)[C@@H](N)CCCCN)C(=O)N[C@@H](CC(C)C)C(=O)N[C@@H](CCCCN)C(=O)N[C@@H](Cc1ccc(O)cc1)C(=O)N[C@@H](CC(C)C)C(N)=O [BP100, reference compound]
Horse erythrocytes
  Percent hemolysis at 50 μM: 4 ± 0.5%
  Percent hemolysis at 150 μM: 7 ± 2%
  Percent hemolysis at 250 μM: 6 ± 0.3%
  Percent hemolysis at 375 μM: 11 ± 0.9%
Tobacco leaves
  Size of the lesions in infiltrated tobacco leaves at 50 μM: 0.40 ± 0.03 cm
  Size of the lesions in infiltrated tobacco leaves at 250 μM: 1.20 ± 0.16 cm

## CC[C@H](C)[C@H](NC(=O)[C@H](CCCCN)NC(=O)[C@H](CCCCN)NC(=O)[C@@H](Cc1ccccc1)NC(=O)[C@H](CC(C)C)NC(=O)[C@H](CCCCN)NC(=O)[C@@H](N)CCCCN)C(=O)N[C@@H](CC(C)C)C(=O)N[C@@H](CCCCN)C(=O)N[C@@H](Cc1ccc(O)cc1)C(=O)N[C@@H](CC(C)C)C(N)=O [BP143, reference compound]
Horse erythrocytes
  Percent hemolysis at 50 μM: 3 ± 0.6%
  Percent hemolysis at 150 μM: 4 ± 0.6%
  Percent hemolysis at 250 μM: 6 ± 0.3%
  Percent hemolysis at 375 μM: 7 ± 0.3%
Tobacco leaves
  Size of the lesions in infiltrated tobacco leaves at 50 μM: 0.10 ± 0.12 cm
  Size of the lesions in infiltrated tobacco leaves at 150 μM: 0.37 ± 0.15 cm
  Size of the lesions in infiltrated tobacco leaves at 250 μM: 0.65 ± 0.11 cm

## KKVVFWVKFK-NH2 [KSL-W, reference compound]
Horse erythrocytes
  Percent hemolysis at 50 μM: 4 ± 1%
  Percent hemolysis at 150 μM: 5 ± 0.2%
  Percent hemolysis at 250 μM: 6 ± 1%
  Percent hemolysis at 375 μM: 20 ± 2%
Tobacco leaves
  Size of the lesions in infiltrated tobacco leaves at 50 μM: 0 ± 0 cm
  Size of the lesions in infiltrated tobacco leaves at 150 μM: 0.37 ± 0.97 cm
  Size of the lesions in infiltrated tobacco leaves at 250 μM: 0.62 ± 0.45 cm

## melittin [reference compound]
Tobacco leaves
  Size of the lesions in infiltrated tobacco leaves at 50 μM: 0.70 cm
  Size of the lesions in infiltrated tobacco leaves at 250 μM: 2.17 cm
